Results from the supplement of paper PMC11451515.

System: NOMO1
Assay: cell viability relative to DMSO control; higher = less cytotoxic
Settings: 48 h
Summary of the method: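 Viability is expressed as a percentage of DMSO wells within each plate, and cell-free wells serve as background. Seeding densities in the 1536-well plates (5 μl) were 500 cells/well for NOMO1 or SEM leukemia cells and 1000 cells/well for P12-Ichikawa. Each line was adapted for at least four passages in each medium. Library compounds in DMSO were pin-dosed at 47 μM to 0.79 nM (11 points, threefold), and CellTiter-Glo One luminescence was read after 48 h at 37°C.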

[1] = HPLM + 10% dialyzed FBS, 0.000781 µM
[2] = HPLM + 10% dialyzed FBS, 0.00234 µM
[3] = HPLM + 10% dialyzed FBS, 0.00702 µM
[4] = HPLM + 10% dialyzed FBS, 0.0211 µM
[5] = HPLM + 10% dialyzed FBS, 0.0632 µM
[6] = HPLM + 10% dialyzed FBS, 0.19 µM
[7] = HPLM + 10% dialyzed FBS, 0.569 µM
[8] = HPLM + 10% dialyzed FBS, 1.71 µM
[9] = HPLM + 10% dialyzed FBS, 5.12 µM
[10] = HPLM + 10% dialyzed FBS, 15.4 µM
[11] = HPLM + 10% dialyzed FBS, 46.1 µM
[12] = RPMI 5 mM glucose + 10% FBS, 0.000781 µM
[13] = RPMI 5 mM glucose + 10% FBS, 0.00234 µM
[14] = RPMI 5 mM glucose + 10% FBS, 0.00702 µM
[15] = RPMI 5 mM glucose + 10% FBS, 0.0211 µM
[16] = RPMI 5 mM glucose + 10% FBS, 0.0632 µM
[17] = RPMI 5 mM glucose + 10% FBS, 0.19 µM
[18] = RPMI 5 mM glucose + 10% FBS, 0.569 µM
[19] = RPMI 5 mM glucose + 10% FBS, 1.71 µM
[20] = RPMI 5 mM glucose + 10% FBS, 5.12 µM
[21] = RPMI 5 mM glucose + 10% FBS, 15.4 µM
[22] = RPMI 5 mM glucose + 10% FBS, 46.1 µM
[23] = RPMI 5 mM glucose + 10% dialyzed FBS, 0.000781 µM
[24] = RPMI 5 mM glucose + 10% dialyzed FBS, 0.00234 µM
[25] = RPMI 5 mM glucose + 10% dialyzed FBS, 0.00702 µM
[26] = RPMI 5 mM glucose + 10% dialyzed FBS, 0.0211 µM
[27] = RPMI 5 mM glucose + 10% dialyzed FBS, 0.0632 µM
[28] = RPMI 5 mM glucose + 10% dialyzed FBS, 0.19 µM
[29] = RPMI 5 mM glucose + 10% dialyzed FBS, 0.569 µM
[30] = RPMI 5 mM glucose + 10% dialyzed FBS, 1.71 µM
[31] = RPMI 5 mM glucose + 10% dialyzed FBS, 5.12 µM
[32] = RPMI 5 mM glucose + 10% dialyzed FBS, 15.4 µM
[33] = RPMI 5 mM glucose + 10% dialyzed FBS, 46.1 µM

| Compound | cell viability [1] [%] | cell viability [2] [%] | cell viability [3] [%] | cell viability [4] [%] | cell viability [5] [%] | cell viability [6] [%] | cell viability [7] [%] | cell viability [8] [%] | cell viability [9] [%] | cell viability [10] [%] | cell viability [11] [%] | cell viability [12] [%] | cell viability [13] [%] | cell viability [14] [%] | cell viability [15] [%] | cell viability [16] [%] | cell viability [17] [%] | cell viability [18] [%] | cell viability [19] [%] | cell viability [20] [%] | cell viability [21] [%] | cell viability [22] [%] | cell viability [23] [%] | cell viability [24] [%] | cell viability [25] [%] | cell viability [26] [%] | cell viability [27] [%] | cell viability [28] [%] | cell viability [29] [%] | cell viability [30] [%] | cell viability [31] [%] | cell viability [32] [%] | cell viability [33] [%] |
| --- | --- | --- | --- | --- | --- | --- | --- | --- | --- | --- | --- | --- | --- | --- | --- | --- | --- | --- | --- | --- | --- | --- | --- | --- | --- | --- | --- | --- | --- | --- | --- | --- | --- |
| CN1CCC(=C2c3ccccc3CCc3sccc32)CC1 | 88.8 | 107 | 111 | 101 | 126 | 118 | 103 | 104 | 121 | 103 | 44.5 | 106 | 109 | 104 | 106 | 125 | 105 | 114 | 107 | 102 | 108 | 109 | 100 | 108 | 113 | 112 | 112 | 110 | 116 | 108 | 106 | 106 | 65.7 |
| COc1cc([C@@H]2c3cc4c(cc3[C@@H](O[C@@H]3O[C@@H]5CO[C@@H](C)O[C@H]5[C@H](O)[C@H]3O)[C@H]3COC(=O)[C@H]23)OCO4)cc(OC)c1O | 93.9 | 98.1 | 83.4 | 103 | 87.5 | 99.9 | 96.3 | 60.3 | 19.3 | 18.1 | 21.6 | 95.4 | 84.9 | 89.9 | 85.9 | 79.1 | 81.1 | 91.4 | 63 | 10.3 | 11.7 | 15.3 | 84.7 | 76.7 | 80.7 | 85.9 | 81.7 | 82.1 | 87.9 | 73.7 | 15.6 | 13.1 | 18.9 |
| CCCCC(F)(F)[C@@]1(O)CC[C@H]2[C@@H](CC(=O)[C@@H]2CCCCCCC(=O)O)O1 | – | – | – | – | – | – | – | – | – | – | – | 123 | 123 | 126 | 115 | 118 | 117 | 115 | 108 | 121 | 111 | 103 | – | – | – | – | – | – | – | – | – | – | – |
| CC1(C)CCC(=C(\C1)C2=CC=C(Cl)C=C2)/CN3CCN(CC3)C4=CC(=C(C=C4)C(=O)N[S+]([O-])(=O)C5=CC=C(NCC6CCOCC6)C(=C5)[N+]([O-])=O)OC7=CN=C8[NH]C=CC8=C7 | 103 | 110 | 95.8 | 91.9 | 113 | 71.8 | 63.2 | 55.3 | 55.1 | 45.8 | 39 | 93.7 | 84.4 | 99.3 | 89.4 | 85.4 | 76.2 | 61.3 | 62.7 | 63.2 | 43 | 33.6 | 97 | 95 | 96.2 | 76.7 | 66.4 | 57.7 | 49 | 38.2 | 42.9 | 28 | 23.9 |
| Cc1ccc(C)c(OCCCC(C)(C)C(=O)O)c1 | 92.3 | 84.2 | 93 | 95.6 | 89.9 | 102 | 105 | 88.4 | 98.9 | 104 | 98.3 | 78.1 | 93.7 | 101 | 94.1 | 85.5 | 105 | 99.4 | 88.7 | 92.1 | 96.5 | 92.9 | 76.5 | 92 | 88.9 | 94.1 | 96.1 | 103 | 101 | 81.3 | 88.3 | 106 | 96.2 |
| CCOC\1=C(/C(=O)NC2=CC=C(OC3=C(Cl)C(=NC=C3)N)C(=C2)F)C(=O)N(\C=C1)C4=CC=C(F)C=C4 | 86.9 | 96.1 | 99.3 | 96.1 | 102 | 106 | 91.6 | 75.6 | 75.1 | 70.9 | 39.1 | 99.8 | 102 | 104 | 90.4 | 100 | 96.6 | 93.5 | 88.7 | 90 | 92 | 51.9 | 111 | 96.1 | 92.2 | 94.7 | 95.3 | 96.8 | 89.1 | 95.8 | 100 | 74.7 | 52.7 |
| OCCN1CCN(CCCN2c3ccccc3Sc3ccc(C(F)(F)F)cc32)CC1 | 123 | 121 | 107 | 122 | 111 | 106 | 98.8 | 122 | 73.2 | 43 | 27.7 | 104 | 104 | 100 | 121 | 97.5 | 110 | 112 | 105 | 104 | 25.7 | 21.3 | 91.6 | 102 | 108 | 105 | 105 | 109 | 110 | 97.3 | 109 | 93.9 | 24.8 |
| CCCC[N+]1(C)[C@@H]2CC(OC(=O)[C@H](CO)c3ccccc3)C[C@H]1[C@@H]1O[C@@H]12 (some centres not stated) | – | – | – | – | – | – | – | – | – | – | – | 106 | 107 | 118 | 120 | 125 | 102 | 114 | 97.9 | 93.6 | 77.7 | 15.6 | 120 | 124 | 136 | 127 | 129 | 118 | 121 | 122 | 117 | 105 | 22.7 |
| O=C1N\N=C(\C[C@@H]2CCN(C2)C(=O)C3CC3)N1C4=CC=C(C=C4)C5=CC=C6OC=CC6=C5 | 99.4 | 89 | 90.1 | 94.5 | 94.7 | 99 | 92 | 109 | 94.4 | 73.9 | 92.2 | 78.2 | 77.4 | 87.3 | 77.6 | 90 | 79.9 | 95.3 | 82.3 | 85.6 | 81.3 | 80.5 | 85.5 | 86.8 | 75.5 | 82.5 | 80.5 | 81.6 | 85.4 | 82.3 | 86 | 75.5 | 87.7 |
| CCNC(=O)c1noc(-c2cc(C(C)C)c(O)cc2O)c1-c1ccc(CN2CCOCC2)cc1 | 91.6 | 98.5 | 109 | 121 | 76.2 | 19.2 | 24.1 | 20 | 20.9 | 19.3 | 21.2 | 119 | 108 | 123 | 116 | 92.6 | 13.5 | 13.7 | 15.4 | 16 | 16 | 19.3 | 107 | 128 | 114 | 131 | 96.4 | 18.9 | 17.3 | 20.3 | 17.4 | 19.5 | 22.4 |
| Cc1ccc([S+](=O)([O-])NC(=O)NN2CC3CCCC3C2)cc1 (configuration not stated) | 108 | 127 | 114 | 104 | 134 | 113 | 96.6 | 104 | 111 | 53.4 | 30.3 | 98 | 104 | 105 | 104 | 106 | 99.5 | 113 | 102 | 108 | 55.6 | 24.1 | 96.4 | 118 | 101 | 105 | 106 | 110 | 103 | 106 | 110 | 57.3 | 36 |
| CNC(=O)c1cc(Oc2ccc(NC(=O)Nc3ccc(Cl)c(C(F)(F)F)c3)c(F)c2)ccn1 | 81.7 | 96.4 | 112 | 107 | 105 | 104 | 109 | 105 | 73.6 | 77.1 | 70.6 | 86.5 | 103 | 94.8 | 108 | 97.1 | 94.3 | 95.6 | 86.2 | 85.4 | 83.4 | 69.7 | 88 | 94.8 | 89.8 | 92.4 | 98.5 | 109 | 104 | 97.9 | 80.3 | 82.2 | 73.6 |
| CN1CCN(CC1)C/2=N/C3=CC=CC=C3NC4=C2C=C(C)S4 | 94.5 | 101 | 102 | 109 | 110 | 96.1 | 93.5 | 86.3 | 86.6 | 75.5 | 77.1 | 89.8 | 85.5 | 80.5 | 88.5 | 100 | 82.4 | 96.7 | 83.9 | 86.1 | 82 | 97.1 | 86.1 | 72.9 | 78.6 | 85 | 88.9 | 86.9 | 99.3 | 89.4 | 76.2 | 69.7 | 81.2 |
| CO[C@H]1C[C@H]2OC[C@@]2(OC(C)=O)[C@H]3[C@H](OC(=O)C4=CC=CC=C4)[C@]5(O)C[C@H](OC(=O)[C@H](O)[C@@H](NC(=O)OC(C)(C)C)C6=CC=CC=C6)/C(=C(/[C@@H](OC)C(=O)[C@]13C)C5(C)C)C | 75.9 | 46 | 28.5 | 25.8 | 19.6 | 19.9 | 19.3 | 18.8 | 27.7 | 19.9 | 7.15 | 68.2 | 79.6 | 86.1 | 14.6 | 10.7 | 13.3 | 11.9 | 12.6 | 14.9 | 11 | 4.22 | 64.3 | 81 | 82.7 | 19 | 14.9 | 13.8 | 13.7 | 13.7 | 17.5 | 16.8 | 7.39 |
| O=C(O)CCc1ccc(NCc2cccc(Oc3ccccc3)c2)cc1 | 97.4 | 105 | 134 | 132 | 119 | 96.9 | 114 | 111 | 122 | 117 | 141 | 85.8 | 99.2 | 108 | 102 | 119 | 111 | 105 | 102 | 109 | 103 | 123 | 82.6 | 103 | 95.1 | 92.5 | 105 | 105 | 103 | 98.6 | 111 | 119 | 104 |
